Patent US9932637B2, “Genetic polymorphisms associated with cardiovascular disorders and drug response, methods of detection and uses thereof” (CELERA CORPORATION, priority 2003, dated 2018)

Test system: patients with prior myocardial infarction (CARE study)
Assay: CARE: association of SNPs with pravastatin treatment in cardiovascular events prevention (logistic regression, odds ratio pravastatin vs placebo by genotype; Table 8)
Assay type: in vivo, human
Details: All Patients; for Total Cardiovascular Disease Events, n/total (%) / Non-fatal MI (def & prob), n/total (%) / Fatal/Non-fatal MI (def & prob), n/total (%) / Fatal/Non-fatal Atherosclerotic CV Disease, n/total (%) / Hosp. for Cardiovascular Disease, n/total (%) / Total Mortality, n/total (%): Prava
Text: In order to identify genetic markers associated with acute coronary events (e.g. MI, stroke, unstable angina, congestive heart failure, etc.) or response to statin treatment for the prevention of coronary events, samples from the Cholesterol and Recurrent Events (CARE) study (a randomized multicentral double-blinded trial on secondary prevention of acute coronary events with pravastatin) (Sacks et al., 1991, Am. J. Cardiol. 68: 1436-1446) were genotyped. A well-documented myocardial infarction (MI) was one of the enrollment criteria for entry into the CARE study. Patients were enrolled in the CARE trial from 80 participating study centers. […] Patients were randomized to receive either 40 mg of pravastatin once daily or a matching placebo. The primary endpoint of the trial was death from coronary heart disease and the median duration of follow-up was 5.0 years (range, 4.0 to 6.2 years). […] Secondary endpoints of other related cardiovascular or metabolic disease events, and changes in clinical variables were also recorded in pravastatin-treated and placebo groups. All individuals included in the study had signed a written informed consent form and the study protocol was approved by the respective Institutional Review Boards (IRBs).
For genotyping SNPs in CARE patient samples, DNA was extracted from blood samples using conventional DNA extraction methods such as the QIA-amp kit from Qiagen. Genotypes were obtained on an ABI PRISM® 7900HT Sequence Detection PCR system (Applied Biosystems, Foster City, Calif.) by kinetic allele-specific PCR, similar to the method described by Germer et al. (Germer S., Holland M. J., Higuchi R. 2000, Genome Res. 10: 258-266).
Statistical analysis for association of SNPs with pravastatin treatment in cardiovascular events prevention (Table 8) was carried out using an overall logistic regression model that included an intercept, a parameter for the effect of a genotype containing two rare alleles versus a genotype containing no rare alleles, a parameter for the effect of a genotype containing one rare allele versus a genotype containing no rare alleles, a parameter for the effect of use of pravastatin versus the use of placebo, and parameters for the interaction effects between SNP genotypes and pravastatin use. The test of the overall model is a chi-square test with two degrees of freedom for analyses containing all three genotypes, and one degree of freedom for analyses containing two genotypes.
Effect sizes were estimated through odds ratios (pravastatin group versus placebo) for carriers of each genotype (groups of 0, 1, and 2 minor allele carriers). The effect was considered to be significant if p-value for testing whether any of the interactions between SNP genotypes and pravastatin use were <0.05. […] Odds ratios less than one indicate that the specific SNP allele has a protective effect and odds ratios greater than one indicate that the specific SNP allele has an adverse effect.

[1] = HLA-DPB1 hCV25651174, Coronary Artery Bypass or Revascularization
[2] = HLA-DPB1 hCV25651174, Fatal CHD/Definite Non-fatal MI
[3] = HLA-DPB1 hCV25651174, Fatal/Non-fatal Atherosclerotic CV Disease
[4] = HLA-DPB1 hCV25651174, Fatal/Non-fatal MI (def & prob)
[5] = HLA-DPB1 hCV25651174, Hosp. for Cardiovascular Disease
[6] = HLA-DPB1 hCV25651174, Non-fatal MI (def & prob)
[7] = HLA-DPB1 hCV25651174, Total Cardiovascular Disease Events
[8] = HLA-DPB1 hCV25651174, Total Coronary Heart Disease Events
[9] = ICAM1 hCV8726337, Fatal/Non-fatal MI (def & prob)
[10] = ICAM1 hCV8726337, Non-fatal MI (def & prob)
[11] = ICAM3 hCV25473653, Fatal/Non-fatal Atherosclerotic CV Disease
[12] = ICAM3 hCV25473653, Total Cardiovascular Disease Events
[13] = IGF2R hCV2200985, Hosp. for Cardiovascular Disease

## CC[C@H](C)C(=O)O[C@H]1C[C@H](O)C=C2C=C[C@H](C)[C@H](CC[C@@H](O)C[C@@H](O)CC(=O)O)[C@H]21 [pravastatin]
HLA-DPB1 hCV25651174, 2 Rare Alleles, n/total 64/144
  Total Cardiovascular Disease Events, n/total (%): (44.4%)
[1]
  Prava vs. Placebo Odds Ratio, 0 Rare Alleles: 0.68
  Prava vs. Placebo Odds Ratio, 1 Rare Alleles: 0.58
  Prava vs. Placebo Odds Ratio, 2 Rare Alleles: 2.11
[2]
  Prava vs. Placebo Odds Ratio, 0 Rare Alleles: 0.57
  Prava vs. Placebo Odds Ratio, 1 Rare Alleles: 0.74
  Prava vs. Placebo Odds Ratio, 2 Rare Alleles: 1.77
[3]
  Prava vs. Placebo Odds Ratio, 0 Rare Alleles: 0.66
  Prava vs. Placebo Odds Ratio, 1 Rare Alleles: 0.78
  Prava vs. Placebo Odds Ratio, 2 Rare Alleles: 1.60
[4]
  Prava vs. Placebo Odds Ratio, 0 Rare Alleles: 0.54
  Prava vs. Placebo Odds Ratio, 1 Rare Alleles: 0.67
  Prava vs. Placebo Odds Ratio, 2 Rare Alleles: 1.97
[5]
  Prava vs. Placebo Odds Ratio, 0 Rare Alleles: 0.70
  Prava vs. Placebo Odds Ratio, 1 Rare Alleles: 0.70
  Prava vs. Placebo Odds Ratio, 2 Rare Alleles: 1.42
[6]
  Prava vs. Placebo Odds Ratio, 0 Rare Alleles: 0.59
  Prava vs. Placebo Odds Ratio, 1 Rare Alleles: 0.68
  Prava vs. Placebo Odds Ratio, 2 Rare Alleles: 2.23
[7]
  Prava vs. Placebo Odds Ratio, 0 Rare Alleles: 0.69
  Prava vs. Placebo Odds Ratio, 1 Rare Alleles: 0.71
  Prava vs. Placebo Odds Ratio, 2 Rare Alleles: 1.35
[8]
  Prava vs. Placebo Odds Ratio, 0 Rare Alleles: 0.69
  Prava vs. Placebo Odds Ratio, 1 Rare Alleles: 0.73
  Prava vs. Placebo Odds Ratio, 2 Rare Alleles: 1.81
ICAM1 hCV8726337, 0 Rare Alleles, n/total 28/495
  Non-fatal MI (def & prob), n/total (%): (5.7%)
ICAM1 hCV8726337, 0 Rare Alleles, n/total 31/495
  Fatal/Non-fatal MI (def & prob), n/total (%): (6.3%)
ICAM1 hCV8726337, 1 Rare Allele, n/total 76/736
  Non-fatal MI (def & prob), n/total (%): (10.3%)
ICAM1 hCV8726337, 1 Rare Allele, n/total 84/736
  Fatal/Non-fatal MI (def & prob), n/total (%): (11.4%)
ICAM1 hCV8726337, 2 Rare Alleles, n/total 30/282
  Non-fatal MI (def & prob), n/total (%): (10.6%)
ICAM1 hCV8726337, 2 Rare Alleles, n/total 31/282
  Fatal/Non-fatal MI (def & prob), n/total (%): (11.0%)
[9]
  Prava vs. Placebo Odds Ratio, 0 Rare Alleles: 0.39
  Prava vs. Placebo Odds Ratio, 1 Rare Alleles: 0.85
  Prava vs. Placebo Odds Ratio, 2 Rare Alleles: 0.77
[10]
  Prava vs. Placebo Odds Ratio, 0 Rare Alleles: 0.39
  Prava vs. Placebo Odds Ratio, 1 Rare Alleles: 0.83
  Prava vs. Placebo Odds Ratio, 2 Rare Alleles: 0.94
ICAM3 hCV25473653, 0 Rare Alleles, n/total 299/924
  Fatal/Non-fatal Atherosclerotic CV Disease, n/total (%): (32.4%)
ICAM3 hCV25473653, 0 Rare Alleles, n/total 376/924
  Total Cardiovascular Disease Events, n/total (%): (40.7%)
ICAM3 hCV25473653, 1 Rare Allele, n/total 191/511
  Fatal/Non-fatal Atherosclerotic CV Disease, n/total (%): (37.4%)
ICAM3 hCV25473653, 1 Rare Allele, n/total 230/511
  Total Cardiovascular Disease Events, n/total (%): (45.0%)
ICAM3 hCV25473653, 2 Rare Alleles, n/total 14/70
  Fatal/Non-fatal Atherosclerotic CV Disease, n/total (%): (20.0%)
ICAM3 hCV25473653, 2 Rare Alleles, n/total 19/70
  Total Cardiovascular Disease Events, n/total (%): (27.1%)
[11]
  Prava vs. Placebo Odds Ratio, 0 Rare Alleles: 0.71
  Prava vs. Placebo Odds Ratio, 1 Rare Alleles: 0.97
  Prava vs. Placebo Odds Ratio, 2 Rare Alleles: 0.37
[12]
  Prava vs. Placebo Odds Ratio, 0 Rare Alleles: 0.71
  Prava vs. Placebo Odds Ratio, 1 Rare Alleles: 0.93
  Prava vs. Placebo Odds Ratio, 2 Rare Alleles: 0.37
IGF2R hCV2200985, 0 Rare Alleles, n/total 465/1175
  Hosp. for Cardiovascular Disease, n/total (%): (39.6%)
IGF2R hCV2200985, 1 Rare Allele, n/total 137/316
  Hosp. for Cardiovascular Disease, n/total (%): (43.4%)
IGF2R hCV2200985, 2 Rare Alleles, n/total 5/24
  Hosp. for Cardiovascular Disease, n/total (%): (20.8%)
[13]
  Prava vs. Placebo Odds Ratio, 0 Rare Alleles: 0.75
  Prava vs. Placebo Odds Ratio, 1 Rare Alleles: 0.88
  Prava vs. Placebo Odds Ratio, 2 Rare Alleles: 0.12
IL1A hCV9546471, 0 Rare Alleles, n/total 52/759
  Total Mortality, n/total (%): (6.9%)
IL1A hCV9546471, 1 Rare Allele, n/total 28/617
  Total Mortality, n/total (%): (4.5%)
IL1A hCV9546471, 2 Rare Alleles, n/total 4/132
  Total Mortality, n/total (%): (3.0%)
IL1A hCV9546471, Total Mortality
  Prava vs. Placebo Odds Ratio, 0 Rare Alleles: 1.40
